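Growth conditions: 96-well plates. Treatment: test compound, 48 hours, 5 concentrations. Analysis: linear interpolation between bracketing concentrations; unreached endpoints set to highest concentration. Here, GI50 denotes the concentration required for 50% inhibition of growth.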 Active and inactive are the calls of the source. Cut-off read from the data, not from the text of the source: active = GI50 up to about 1.1 µM and inactive = higher.
What was measured:
Assay in all cases: DTP human tumour cell line panel, 48 h
HCT-116 = system: HCT-116
HT-29 = system: HT-29
EKVX = system: EKVX
HOP-92 = system: HOP-92
RXF 393 = system: RXF 393
SF-268 = system: SF-268
SF-295 = system: SF-295
OVCAR-4 = system: OVCAR-4
SF-539 = system: SF-539
UACC-257 = system: UACC-257
OVCAR-8 = system: OVCAR-8
SK-MEL-5 = system: SK-MEL-5
CAKI-1 = system: CAKI-1
SR = system: SR
HL-60 = system: HL-60
HCT-15 = system: HCT-15
COLO 205 = system: COLO 205
NCI/ADR-RES = system: NCI/ADR-RES
K562 = system: K562
HOP-62 = system: HOP-62
A549 = system: A549
UO-31 = system: UO-31
DU-145 = system: DU-145
Hs-578T = system: Hs-578T
MDA-N = system: MDA-N
Malme-3M = system: Malme-3M
SN12C = system: SN12C
MCF7 = system: MCF7
OVCAR-3 = system: OVCAR-3
KM12 = system: KM12
T47D = system: T47D
UACC-62 = system: UACC-62
TK-10 = system: TK-10
NCI-H226 = system: NCI-H226
SK-OV-3 = system: SK-OV-3
IGROV-1 = system: IGROV-1
M14 = system: M14
NCI-H23 = system: NCI-H23
NCI-H460 = system: NCI-H460
LOX IMVI = system: LOX IMVI
MOLT-4 = system: MOLT-4
OVCAR-5 = system: OVCAR-5
SW-620 = system: SW-620
MDA-MB-435 = system: MDA-MB-435
RPMI-8226 = system: RPMI-8226
ACHN = system: ACHN
MDA-MB-231 = system: MDA-MB-231
SNB-19 = system: SNB-19
U-251 = system: U-251
SK-MEL-2 = system: SK-MEL-2
CCRF-CEM = system: CCRF-CEM
PC-3 = system: PC-3
HCC 2998 = system: HCC 2998
SK-MEL-28 = system: SK-MEL-28
786-0 = system: 786-0
NCI-H522 = system: NCI-H522
A498 = system: A498
SNB-75 = system: SNB-75

Measured: GI50

CC1(C)N=C(/C(Cl)=[N+](/[O-])C(=O)c2ccc(Cl)cc2)C(C)(C)N1O
inactive: HCT-116 16.3 µM | HT-29 22.1 µM | EKVX > 100 µM | HOP-92 17.3 µM | RXF 393 22 µM | SF-268 29.4 µM | SF-295 56 µM | OVCAR-4 26.4 µM | SF-539 21.3 µM | UACC-257 18.2 µM | OVCAR-8 20.4 µM | SK-MEL-5 20 µM | CAKI-1 19.2 µM | SR 28.3 µM | HL-60 18.5 µM | COLO 205 17 µM | NCI/ADR-RES 25.9 µM | K562 5.51 µM | HOP-62 39 µM | A549 > 100 µM | UO-31 > 100 µM | DU-145 > 100 µM | Hs-578T 36.2 µM | MDA-N 17.1 µM | Malme-3M 17.7 µM | SN12C 23.8 µM | MCF7 17.3 µM | OVCAR-3 17.5 µM | KM12 45.3 µM | T47D 38.3 µM | UACC-62 > 10 µM | TK-10 19.8 µM | NCI-H226 25.9 µM | SK-OV-3 > 100 µM | IGROV-1 41 µM | M14 18.2 µM | NCI-H23 22.1 µM | NCI-H460 45.5 µM | LOX IMVI 6.76 µM | MOLT-4 > 10 µM | OVCAR-5 23.6 µM | SW-620 20.3 µM | MDA-MB-435 22.3 µM | RPMI-8226 26.5 µM | ACHN 38.5 µM | MDA-MB-231 21.8 µM | SNB-19 > 100 µM | U-251 26.4 µM | SK-MEL-2 52.7 µM | CCRF-CEM 7.52 µM | PC-3 21.3 µM | HCC 2998 25.9 µM | SK-MEL-28 18.5 µM
19.8 µM: HCT-15

O=c1oc2c/c(=C\c3ccccn3)c(=O)c3cccc1c3-2
> 100 µM: HCT-15
inactive: HCT-116 35.2 µM | HT-29 > 100 µM | EKVX > 100 µM | HOP-92 > 100 µM | RXF 393 5.56 µM | SF-268 30.8 µM | SF-295 > 100 µM | OVCAR-4 > 100 µM | SF-539 19.7 µM | UACC-257 > 100 µM | OVCAR-8 16.5 µM | SK-MEL-5 > 100 µM | CAKI-1 > 100 µM | SR 54.8 µM | HL-60 > 100 µM | COLO 205 > 100 µM | NCI/ADR-RES 52.7 µM | K562 > 100 µM | HOP-62 15.4 µM | 786-0 14.6 µM | DU-145 > 100 µM | Hs-578T > 100 µM | MDA-N > 100 µM | Malme-3M 72.3 µM | SN12C 95.5 µM | MCF7 > 100 µM | OVCAR-3 7.59 µM | KM12 50.4 µM | T47D 38.1 µM | UACC-62 > 100 µM | TK-10 66.8 µM | NCI-H226 28.3 µM | SK-OV-3 > 100 µM | IGROV-1 90.8 µM | M14 > 100 µM | NCI-H23 > 100 µM | NCI-H460 > 100 µM | LOX IMVI 29 µM | MOLT-4 49.3 µM | OVCAR-5 > 100 µM | SW-620 > 100 µM | MDA-MB-435 > 100 µM | RPMI-8226 28.6 µM | ACHN 44.7 µM | MDA-MB-231 31.8 µM | SNB-19 68.2 µM | CCRF-CEM 33.8 µM | PC-3 72.6 µM | HCC 2998 > 100 µM | SK-MEL-28 > 100 µM | NCI-H522 16.1 µM

O=C(NC(Cl)(C(F)(F)F)C(F)(F)F)c1ccc(F)cc1
active: SNB-75 0.789 µM
inactive: HCT-116 > 100 µM | HT-29 > 100 µM | EKVX > 100 µM | HOP-92 > 100 µM | RXF 393 > 100 µM | SF-268 > 100 µM | SF-295 > 100 µM | OVCAR-4 > 100 µM | SF-539 > 100 µM | UACC-257 > 100 µM | OVCAR-8 > 100 µM | SK-MEL-5 > 100 µM | CAKI-1 > 100 µM | SR > 100 µM | HL-60 > 100 µM | COLO 205 > 100 µM | NCI/ADR-RES > 100 µM | K562 > 100 µM | HOP-62 > 100 µM | 786-0 > 100 µM | A549 > 100 µM | UO-31 > 100 µM | DU-145 > 100 µM | Hs-578T > 100 µM | MDA-N > 100 µM | Malme-3M > 100 µM | SN12C > 100 µM | MCF7 > 100 µM | OVCAR-3 > 100 µM | KM12 > 100 µM | T47D > 100 µM | TK-10 > 100 µM | NCI-H226 > 100 µM | SK-OV-3 > 100 µM | IGROV-1 > 100 µM | A498 > 100 µM | M14 > 100 µM | NCI-H23 > 100 µM | NCI-H460 > 100 µM | LOX IMVI > 100 µM | MOLT-4 > 100 µM | OVCAR-5 > 100 µM | SW-620 > 100 µM | MDA-MB-435 > 100 µM | RPMI-8226 > 100 µM | ACHN > 100 µM | MDA-MB-231 > 100 µM | SNB-19 > 100 µM | U-251 > 100 µM | SK-MEL-2 > 100 µM | CCRF-CEM > 100 µM | PC-3 > 100 µM | HCC 2998 > 100 µM | SK-MEL-28 > 100 µM
> 100 µM: HCT-15

Source: ChEMBL document CHEMBL1201862, “PubChem BioAssay data set” (2004)
